Reference: publication PMC5145856 (Frontiers in Cellular Neuroscience, 2016)
“And” between values parts separate entries of the source, which are not always exact repeats. Identical values can stand only once. Like-named read-outs stand apart in the source and are kept apart here.

How the values were obtained:
OR2/ORco [1] = molecular target: T1, OR2/ORco (Anopheles gambiae, UniProt Q7QCC7+Q8WTE6); test: Photina Ca2+ bioluminescence assay in Hi5 cells expressing OR2/ORco; type: cell-based; details: for EC50: OR2+ORco, agonist alone
T1 construct: expressed in transfected cells; host or cells: Trichoplusia ni BTI-Tn 5B1-4 HighFive (Hi5) cells, transient transfection with pEIA plasmids
T1 sequence (Q8WTE6 1-378): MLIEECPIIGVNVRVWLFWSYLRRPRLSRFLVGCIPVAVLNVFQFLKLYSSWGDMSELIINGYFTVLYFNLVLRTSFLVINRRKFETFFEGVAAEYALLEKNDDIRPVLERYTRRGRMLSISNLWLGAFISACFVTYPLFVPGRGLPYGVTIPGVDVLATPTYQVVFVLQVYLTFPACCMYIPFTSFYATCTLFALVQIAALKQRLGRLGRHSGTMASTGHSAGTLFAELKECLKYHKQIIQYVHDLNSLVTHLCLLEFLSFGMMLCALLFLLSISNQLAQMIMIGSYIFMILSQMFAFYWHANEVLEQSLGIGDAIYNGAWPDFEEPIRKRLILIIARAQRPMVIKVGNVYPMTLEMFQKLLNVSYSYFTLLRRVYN
T1 sequence (Q7QCC7 1-478): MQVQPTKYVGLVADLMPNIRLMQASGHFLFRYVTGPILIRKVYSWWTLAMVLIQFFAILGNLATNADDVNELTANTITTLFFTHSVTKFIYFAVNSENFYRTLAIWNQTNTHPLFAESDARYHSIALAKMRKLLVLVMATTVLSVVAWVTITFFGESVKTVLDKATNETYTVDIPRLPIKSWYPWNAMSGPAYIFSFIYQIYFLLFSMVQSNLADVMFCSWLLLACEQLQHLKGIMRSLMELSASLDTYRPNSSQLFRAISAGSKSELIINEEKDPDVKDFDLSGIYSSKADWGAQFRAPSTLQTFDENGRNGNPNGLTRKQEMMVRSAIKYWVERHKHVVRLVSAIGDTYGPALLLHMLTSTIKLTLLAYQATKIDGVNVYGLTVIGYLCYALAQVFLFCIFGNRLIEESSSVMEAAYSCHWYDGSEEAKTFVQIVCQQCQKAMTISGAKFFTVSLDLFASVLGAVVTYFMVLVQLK

OR2/ORco [2] = molecular target: T1, OR2/ORco; parameters: method as in Tsitoura et al., 2015; details: agonist alone, ref Tsitoura et al., 2015; cited from earlier work
OR1/ORco [3] = molecular target: T2, OR1/ORco (Anopheles gambiae, UniProt Q7QCC7+Q8WTE7); test: Photina Ca2+ bioluminescence assay in Hi5 cells expressing OR1/ORco; type: cell-based; details: for EC50: OR1+ORco, agonist alone
T2 construct: expressed in transfected cells; host or cells: Trichoplusia ni BTI-Tn 5B1-4 HighFive (Hi5) cells, transient transfection with pEIA plasmids
T2 sequence (Q8WTE7 1-417): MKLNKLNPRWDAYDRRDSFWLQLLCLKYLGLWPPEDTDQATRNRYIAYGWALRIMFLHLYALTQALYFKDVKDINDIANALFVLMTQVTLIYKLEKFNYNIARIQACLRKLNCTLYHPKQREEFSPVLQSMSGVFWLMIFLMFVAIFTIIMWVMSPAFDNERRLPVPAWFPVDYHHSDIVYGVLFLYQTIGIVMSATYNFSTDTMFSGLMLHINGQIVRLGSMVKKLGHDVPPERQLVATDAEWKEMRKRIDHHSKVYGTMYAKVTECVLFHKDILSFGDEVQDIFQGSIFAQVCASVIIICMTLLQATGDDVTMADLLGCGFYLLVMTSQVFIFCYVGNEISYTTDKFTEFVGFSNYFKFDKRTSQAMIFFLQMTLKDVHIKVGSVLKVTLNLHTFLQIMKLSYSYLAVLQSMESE
T2 sequence (Q7QCC7 1-478): T1 sequence (Q7QCC7 1-478)

OR1/ORco [4] = molecular target: T2, OR1/ORco; parameters: method as in Tsitoura et al., 2015; details: agonist alone, ref Tsitoura et al., 2015; cited from earlier work
ORco [5] = molecular target: T3, ORco (Anopheles gambiae, UniProt Q7QCC7); test: Photina Ca2+ bioluminescence assay in Hi5 cells expressing ORco alone; type: cell-based; details: ORco homomer
T3 construct: expressed in transfected cells; host or cells: Trichoplusia ni BTI-Tn 5B1-4 HighFive (Hi5) cells, transient transfection with pEIA.ORco and pEIA.Photina
T3 sequence (Q7QCC7 1-478): T1 sequence (Q7QCC7 1-478)

OR9/ORco = OR9/ORco (Anopheles gambiae, UniProt A0ABK8FPD1+Q7QCC7); type: cell-based
ORco [6] = molecular target: T3, ORco; parameters: method as in Tsitoura et al., 2015; details: ORco homomer; ref Tsitoura et al., 2015; cited from earlier work
OR53/ORco = OR53/ORco (Anopheles gambiae, UniProt A0ABK8FS74+Q7QCC7); type: cell-based
[7] = from the fitted dose-response curve, odorant alone

OR9/ORco, sequence (A0ABK8FPD1 entry or part of it, one chain of several): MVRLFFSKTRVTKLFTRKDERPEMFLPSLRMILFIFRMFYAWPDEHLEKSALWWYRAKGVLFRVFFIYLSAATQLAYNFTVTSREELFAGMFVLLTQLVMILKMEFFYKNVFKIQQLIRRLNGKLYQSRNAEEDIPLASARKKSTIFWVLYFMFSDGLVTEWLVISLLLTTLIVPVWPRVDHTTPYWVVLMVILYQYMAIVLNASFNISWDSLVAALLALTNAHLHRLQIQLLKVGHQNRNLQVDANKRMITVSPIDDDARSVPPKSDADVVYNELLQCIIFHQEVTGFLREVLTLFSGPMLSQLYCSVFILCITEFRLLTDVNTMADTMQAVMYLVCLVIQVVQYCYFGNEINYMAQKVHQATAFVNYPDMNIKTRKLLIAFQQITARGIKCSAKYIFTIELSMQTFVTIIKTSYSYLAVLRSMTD
OR53/ORco, sequence (A0ABK8FS74 entry or part of it, one chain of several): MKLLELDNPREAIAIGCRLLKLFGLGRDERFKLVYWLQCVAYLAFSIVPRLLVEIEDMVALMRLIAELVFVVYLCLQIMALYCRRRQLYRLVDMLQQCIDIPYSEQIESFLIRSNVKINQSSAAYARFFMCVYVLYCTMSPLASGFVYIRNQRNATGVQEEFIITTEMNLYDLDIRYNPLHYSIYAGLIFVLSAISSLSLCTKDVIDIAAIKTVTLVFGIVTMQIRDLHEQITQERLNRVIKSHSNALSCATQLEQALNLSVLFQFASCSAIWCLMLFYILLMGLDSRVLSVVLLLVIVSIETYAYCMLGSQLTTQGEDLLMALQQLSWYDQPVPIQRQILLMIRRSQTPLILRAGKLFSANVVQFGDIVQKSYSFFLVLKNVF

c1ccc2[nH]ccc2c1 [IN, Indole]
EC50 (OR2/ORco [1]): 5.5 µM | Concentration of the odorant at EC20 (OR2/ORco [1]; [7]): 3.3 µM | EC50 (OR2/ORco [2]): 3.4 µM

Cc1ccc(O)cc1 [4MP, 4-Methylphenol]
EC50 (OR1/ORco [3]): 1.2 µM | Concentration of the odorant at EC20 (OR1/ORco [3]; [7]): 0.427 µM | EC50 (OR1/ORco [4]): 2.8 µM

CCc1ccc(NC(=O)CSc2nnc(-c3ccncc3)n2CC)cc1 [OA, N-(4-ethylphenyl)-2-((4-ethyl-5-(4-pyridinyl)-4H-1,2,4-triazol-3-yl)thio)acetamide]
Potentiation magnitude at EC20 of odorant (OR1/ORco [3]; 10 µM OA (ORcoRAM2), 4MP at EC20 (427nM)): ~ 93 fold | Relative efficacy§ (relative to 100 µM ORx-specific odorant) (OR1/ORco [3]; 10 µM ORcoRAM2 alone vs 100 µM 4MP, Figure 3A): 2.88 fold | Relative efficacy§ (potentiation relative to 100 µM ORx-specific odorant) (OR1/ORco [3]; 10 µM ORcoRAM2 together with 100 µM 4MP vs 100 µM 4MP alone, Figure 3A): 32.45 fold | Relative efficacy# (relative to 100 µM ORx-specific odorant) (OR1/ORco [3]; 100 µM ORcoRAM2 alone vs 100 µM 4MP, Figure 1C): 10,22 fold | EC50 (OR1/ORco [3]): 57 µM and 56.6 µM | EC50 (ORco [5]): 97 µM and 96.6 µM | EC50 (ORco [5]; listed as OrcoRAM2): 100 µM | Potentiation magnitude at EC20 of odorant (OR9/ORco): ~ 10 fold | Relative efficacy# (relative to 100 µM ORx-specific odorant) (OR9/ORco): 10.4 fold | Relative efficacy* (relative to ORco) (OR9/ORco): 1,05 fold | Relative efficacy§ (potentiation relative to 100 µM ORx-specific odorant) (OR9/ORco): 4.94 fold | Relative efficacy§ (relative to 100 µM ORx-specific odorant) (OR9/ORco): 0.05 fold | EC50 (OR9/ORco; read-out: EC50): 79 µM and 78.7 µM | EC50 (ORco [6]): 59 µM and 58.9 µM | Relative efficacy* (relative to ORco) (OR53/ORco): 3.87 fold | Relative efficacy§ (potentiation relative to 100 µM ORx-specific odorant) (OR53/ORco): 140.85 fold and 140 fold and 141 fold | Relative efficacy§ (relative to 100 µM ORx-specific odorant) (OR53/ORco): 16.3 fold | EC50 (OR53/ORco; read-out: EC50): 57 µM and 56.6 µM | Potentiation magnitude at EC20 of odorant (OR2/ORco [1]): ~ 53 fold | Relative efficacy§ (relative to 100 µM ORx-specific odorant) (OR2/ORco [1]; 10 µM ORcoRAM2 alone vs 100 µM IN, Figure 3A): 0.57 fold | Relative efficacy§ (potentiation relative to 100 µM ORx-specific odorant) (OR2/ORco [1]; 10 µM ORcoRAM2 together with 100 µM IN vs 100 µM IN alone, Figure 3A): 8.09 fold | Relative efficacy* (relative to ORco) (OR2/ORco [1]; 100 µM ORcoRAM2, no odorant, OR2/ORco vs ORco homomer, Figure 1A): 3.2 fold | Relative efficacy# (relative to 100 µM ORx-specific odorant) (OR2/ORco [1]; 100 µM ORcoRAM2 alone vs 100 µM IN, Figure 1C): 6.22 fold | EC50 (OR2/ORco [1]): 44 µM and 43.6 µM

CCc1ccccc1O [2EP, 2-Ethylphenol]
Concentration of the odorant at EC20 (OR9/ORco): 35 µM | Functional response of receptor to odorant (OR9/ORco): responded | EC50 (OR9/ORco; OR9+ORco, agonist alone): 77.6 µM | pEC50 ± SE (OR9/ORco; OR9+ORco, agonist alone): 4.110 ± 0.009062 | EC50 (OR9/ORco; OR9+ORco, agonist alone, listed as 2-ethylphenol): ~78 µM

C=CC(C)(O)CCC=C(C)C (stereo not shown) [LIN, Linalool]
Concentration of the odorant at EC20 (OR53/ORco): 105 µM | Functional response of receptor to odorant (OR53/ORco): clear responses | EC50 (OR53/ORco; OR53+ORco, agonist alone): 181 µM | pEC50 ± SE (OR53/ORco; OR53+ORco, agonist alone): 3.742 ± 0.04453 | EC50 (OR53/ORco; OR53+ORco, agonist alone, listed as linalool): ~180 µM
